Key:
[1] = test system: bovine pulmonary artery endothelial cells (BPAEC); assay: Endothelial cell apoptosis (morphology, Hoechst staining, DNA fragmentation); format: cell-based
Method: [Bovine pulmonary artery endothelial cells were incubated with various concentrations of TNF-gamma for 48 hours. The apoptosis was assessed by nuclear staining with Hoechst 33342 fluorescence dye (10 mg/ml).] […] [U937 cells were transfected using lipofectamine (following manufacturer's instruction) with 0.2 mg of reporter plasmid (NF-kappaB-SEAP). The transfected U937 cells were collected and added to the 96-well plate ([…]/well) with various concentrated of TNF-gamma. After Incubation at 37° C. for 72 hr, the NF-kappaB activity was measured with luminometer at absorbance of 450 nm.]
Bovine pulmonary artery endothelia cells (BPAEC) were incubated with various concentrations of TNF-gamma for 48 hours. Apoptosis was assessed morphologically and by nuclear staining with Hoechst 33342 fluorescence dye (10 mg/ml) in triplicate. Live and apoptotic cells were scored in four random fields, about 1,000 cells were counted. The DNA fragmentation was analyzed as described previously.
BPAEC were obtained from the American Type Culture Collection (Rockville, Md., USA). The cells were grown in DMEM supplemented with 10% heat-inactivated FCS in a humidified environment of 5% CO2/[…] at 37° C. as previously described (Yue, T. L., et al., Mol. Pharmacol. 51:951-962 (1997)). Cells at a subconfluent density were used. Before experiments, the medium was changed to DMEM contained 2% FCS. BPAEC from passages 17-20 were used in all studies.
To quantify cells undergoing apoptosis, cell monolayers were fixed and stained with Hoechst […] (Molecular probe, Eugene, Oreg., USA) as described previously (Yue, T. L., et al., Mol. Pharmacol. 51:951-962 (1997)). The morphological features of apoptosis (cell shrinkage, chromatin condensation, blebbing, and fragmentation) were monitored by fluorescence microscopy. Transmission electron microscopy study was done as reported previously (Yue, T. L., et al., Mol. Pharmacol. 51:951-962 (1997)).
DNA ladder: Cells treated with vehicle or TNF-gamma-alpha were lysed in lysis buffer containing 100 mM NaCl, 10 mM Tris-HCl, pH 8.0, 2.5 mM EEDTA, 0.5% SDS, and 100 micrograms/ml […]. The lysates were incubated at 55° C. for 16 h. After incubation, the lysates were gently extracted three times with pheno/chloroform/isoamyl alcohol, precipitated in ethanol, treated with DNAse-free RNAse, re-extracted, and precipitated again as described previously. DNA electrophoresis was carried out in 1.8% agarose gels containing ethidium bromide, and DNA fragmentations were visualized under ultraviolet light.
In situ end-labeling (TUNEL): BPAEC were cultured in two-chamber slides (Nunc) and treated with TNF-gamma-alpha for 8 to 24 h. In situ detection of apoptotic cells was performed by using terminal deoxyribonucleotide transferase-mediated dUTP nick end labeling with an ApopTag in situ apoptosis detection kit (Oncor) following the manufacturer's recommendation.
The cells were plated in two-chamber slides. The cells were cotransfected with 0.5 μg/ml of Pegfp-c-1 (Clontech; Li, Y. and Horwitz, M. S. Biotechnology 23:1026-1028) as a fluorescent marker of transfected cells together with 1 μg/ml of either the empty cloning vector pcDNA1 (control) or the dominant-interfering c-Jun mutant pcDNA1-FlagΔ169 (Xia, Z., et al., Science 270:1326-1331 (1995)) using Calphos Maximizer Transfection Kit (Clontech) according to the manufacturer's recommendation. Following transfection, the cells were allowed to recover in complete medium for 24 h. The cells were treated with TNF-gamma-alpha and the number of apoptotic cells was assessed by nuclear staining after fixation as described in Methods.

[2] = test system: bFGF-induced corneal neovascularization; assay: Corneal angiogenic assay; format: in vivo, rat
From the text: Basic FGF (“bFGF”) has been tested in this corneal angiogenic assay in various research laboratories for a variety of purposes. It has been shown that bFGF can induce significant angiogenesis in corneas (e.g., in rabbits, rats and mice). Based on the previous studies, bFGF was used in our study of TNF-gamma as an angiogenic factor to induce the growth of blood vessels in rat corneas.
An incision, 1-1.5 mm in length, is made in the center of the cornea with a microsurgery scalpel blade.
Starting at the incision, a micropocket is created between the collagenous layers of the corneal stroma with a Castroviego cyclodialysis spatula. This pocket extends to a point 1-2 mm from the capillary bed at the corneal-scleral limbus.
bFGF, which is incorporated 1:1 into non-inflammatory Hydron polymer (available from Interferon Sciences, New Brunswick, N.J.), is implanted into the pocket.
Five or seven days after corneal implantation, corneal blood perfusion with colloidal carbon is performed. Corneas are then harvested, fixed, flattened, mounted and photographed for morphology.
An image analysis system (IPLab) is used to quantify the corneal angiogenesis. The corneal surface area, which is covered by the new blood vessels, is quantified and used in our current study. After corneal implantation surgery, TNF-gamma, angiostatin or PBS in a volume of 25 microliters was injected into the conjunctival region adjacent to the implantation site. Based on molarities of TNF-gamma and angiostatin, 10 micrograms of TNF-gamma or 5 micrograms of angiostatin were given respectively four times, once a day, during the first four days post-surgery. TNF-gamma and angiostatin were prepared in PBS.
bFGF was used to induce neovascularization of the cornea from preexisting pericorneal limbal vessels in two different versions of the assay. First, corneas were surgically implanted with hydrogel plugs containing bFGF. […] In a separate study using an alternate version of this assay, both bFGF and treatment protein were co-administered on a nitrocellulose filter disk implanted within the rat corneal stroma. […] In both assays, the surface area of the angiogenic response was quantitated from digital images of treated corneas five days following implantation.

TNF-gamma-beta = target: T1, TNF-gamma-beta (Homo sapiens, UniProt O95150); assay: FACS binding of receptor-Fc proteins to cells expressing full length TNF-gamma-beta
T1 construct: expressed in transfected cells
T1 sequence (O95150 1-251): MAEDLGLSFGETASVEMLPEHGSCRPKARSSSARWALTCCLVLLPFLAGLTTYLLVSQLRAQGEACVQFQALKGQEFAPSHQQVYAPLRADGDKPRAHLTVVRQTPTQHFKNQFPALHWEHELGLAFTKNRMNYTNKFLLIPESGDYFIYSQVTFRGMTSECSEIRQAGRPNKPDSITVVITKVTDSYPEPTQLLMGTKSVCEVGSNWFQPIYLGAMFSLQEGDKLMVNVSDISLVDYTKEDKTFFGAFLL
Method: These cells were used to screen the Fc-fusion form of the extracellular domain of TNFR family members, including TNFR1, Fas, HveA, DR3, DR4, DR5, DR6, DcR1, DcR2, TR6, OPG, RANK, AITR, TAC1, CD40, and OX40. […] TR6 has been previously described as a decoy receptor (Pitti et al., Nature 396:699-703 (1998); Yu et al., J. Biol. Chem. 274:13733-6 (1999)) capable of competing with Fas and HveA for binding of FasL and LIGHT, respectively.
Cells resistant to 0.5 mg/ml Genticin (Invitrogen) were selected and expanded. Expression of TNF-gamma-beta mRNA was confirmed by quantitative RT-PCR analysis and surface expression of TNF-gamma-beta protein confirmed by FACS analyses using TNF-gamma-beta monoclonal antibodies.
One million cells, in 0.1 ml of FACS buffer (PBS, 0.1% BSA, 0.1% NaN3), were incubated with 0.1-1 microgram of protein or antibody at RT for 15 min. The cells were washed with 3 ml of FACS buffer, reacted with biotinylated primary antibody, and stained with PE-conjugated secondary antibody at RT for 15 min. Cells were then washed again, resuspended in 0.5 microgram/ml of propidium iodide, and live cells were gated and analyzed on a FACScan using the CellQuest software (BD Biosciences).

[3] = target: T2, recombinant, untagged TNF-gamma-beta protein (aa 72-251) (human, UniProt O95150 72-251); assay: BIAcore 3000, DR3-Fc immobilised on CM5 chip, TNF-gamma-beta in flow, 1:1 model, three batches
T2 construct: they are put here; also called TL1β; non-tagged TNF-gamma-beta
T2 sequence: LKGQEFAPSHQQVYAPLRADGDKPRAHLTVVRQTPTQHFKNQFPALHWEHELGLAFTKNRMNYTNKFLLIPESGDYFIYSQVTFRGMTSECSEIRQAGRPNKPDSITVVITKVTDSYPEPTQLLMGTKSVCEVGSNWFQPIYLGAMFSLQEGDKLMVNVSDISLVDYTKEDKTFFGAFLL
Method: TNFR-Fc were covalently immobilized to the BIAcore sensor chip (CM5 chip) via amine groups using N-ethyl-N′-(dimethylaminopropyl) carbodiimide/N-hydroxysuccinimide chemistry. […] The amount of bound protein was determined during washing of the flow cell with HBS buffer (10 mM HEPES, pH 7.4, 150 mM NaCl, 3.4 mM EDTA, 0.005% Surfactant P20). The flow cell surface was regenerated by displacing bound protein by washing with 20 microliters of 10 mM glycine-HCl, pH 2.3. For kinetic analysis, the on and off rates were determined using the kinetic evaluation program in BIAevaluation 3 software using a 1:1 binding model and the global analysis method.

With ZVAD-fmk [reference compound] the “effect of caspase inhibitor on TNF-gamma-alpha-induced BPAEC apoptosis” value ([1]; added 1 h prior to TNF-gamma-alpha, Ac-YYAD-CHO up to 100 μM) was “attenuated”.

With C[S+]([O-])c1ccc(-c2nc(-c3ccncc3)c(-c3ccc(F)cc3)[nH]2)cc1 (stereo not drawn) [SB203580, reference compound] the “reduction of TNF-gamma-alpha-induced BPAEC apoptosis” value ([1]; 3 μM) was 33% and the “reduction of TNF-gamma-alpha-induced BPAEC apoptosis” value ([1]; 10 μM) was 51%.

With angiostatin the “angiogenic process in bFGF-implanted corneas” value ([2]; bFGF (300 ng) implant, conjunctival injection once a day for four days, 10 micrograms TNF-gamma or 5 micrograms angiostatin, seven days after surgery, vs PBS) was “significantly slowed down the angiogenic process”, the “maximal decrease in rat corneal neovascularization induced by bFGF” value ([2]; comparison of TNF-gamma-beta and angiostatin) was “similar” and the “vessel growth in PBS-implanted corneas” value ([2]; multiple conjunctival injections) was “no obvious vessel growth”.

B1: HveA-Fc: extracellular domain of HveA (aa 1-192) fused to Fc of human IgG1 (protein)
chain: LPSCKEDEYPVGSECCPKCSPGYRVKEACGELTGTVCEPCPPGTYIAHLNGLSKCLQCQMCDPAMGLRASRNCSRTENAVCGCSPGHFCIVQDGDHCAACRAYATSSPGQRVQKGGTESQDTLCQNCPPGTFSPNGTLEECQHQTKCSWLVTKA
modifications: left off: a dimerising Fc or GST
notes: extracellular domain of HveA (aa 1-192) fused to Fc of human IgG1
With B1 the “binding to cells expressing TNF-gamma-beta (FACS)” value (TNF-gamma-beta) was “did not bind”.

B2: sTNFR1: Mouse soluble TNF receptor 1 from R&D Systems (protein, UniProt P25118 30-212, looked up)
extracellular domain: LVPSLGDREKRDSLCPQGKYVHSKNNSICCTKCHKGTYLVSDCPSPGRDTVCRECEKGTFTASQNYLRQCLSCKTCRKEMSQVEISPCQADKDTVCGCKENQFQRYLSETHFQCVDCSPCFNGTVTIPCKETQNTVCNCHAGFFLRESECVPCSHCKKNEECMKLCLPPPLANVTNPQDSGTA
modifications: extracellular domain
notes: Mouse soluble TNF receptor 1 from R&D Systems
B2 was tested, and the “effect on TNF-gamma-alpha-induced apoptosis” value ([1]; BPAEC) was “Neither sTNFR1 nor sTNFR2 showed effect” and the “effect on TNFa-induced apoptosis” value ([1]; BPAEC, same condition) was “reduced by sTNFR1 significantly”.

B3: TR6: non-tagged TNFR-6 alpha (DcR3) decoy receptor protein (protein)
chain: VAETPTYPWRDAETGERLVCAQCPPGTFVQRPCRRDSPTTCGPCPPRHYTQFWNYLERCRYCNVLCGEREEEARACHATHNRACRCRTGFFAHAGFCLEHASCPPGAGVIAPGTPSQNTQCQPCPPGTFSASSSSSEQCQPHRNCTALGLALNVPGSSSHDTLCTSCTGFPLSTRVPGAEECERAVIDFVAFQDISIKRLQRLLQALEAPEGWGPTPRAGRAALQLKLRRRLTELLGAQDGALLVRLLQALRVARMPGLERSVRERFLPVH
For B3, the “competition with DR3-Fc for binding to TNF-gamma-beta expressing cells” value (TNF-gamma-beta; 2:1 molar ratio of non-tagged TR6 and DR3-Fc) was “no binding of DR3-Fc was detected”.

B4: DR3-Fc (extracellular domain of human DR3, aa 1-199, fused to the Fc domain of human IgG1) (Fc fusion, UniProt Q93038 25-199, looked up)
chain: QGGTRSPRCDCAGDFHKKIGLFCCRGCPAGHYLKAPCTEPCGNSTCLVCPQDTFLAWENHHNSECARCQACDEQASQVALENCSAVADTRCGCKPGWFVECQVSQCVSSSPFYCQPCLDCGALHRHTRLLCSRRDTDCGTCLPGFYEHGDGCVSCPTSTLGSCPERCAAVCGWRQ
notes: range 1-199; not shown: Fc domain of human IgG1, fused in-frame to the C-terminus of the receptor part
B4 gave a Kd [3] of 6.45 nM and a kon [3] of 639000 M⁻¹ s⁻¹.

Source: patent US20030129189A1, “Tumor necrosis factor-gamma” (priority 1994, published 2003)
